Entries after “also recorded” stand apart in the source; their conditions may differ.
Tests used:
[1] = system: intestine enteroendocrine cells; test: Initial DBZ i.p. followed by FBT9 via enterojejunal catheter (24 hrs after DBZ); intestine analyzed for enteroendocrine cell content by immunohistochemistry; assay type: in vivo, mouse; conditions: FBT9 from 24 hrs later
Experimental: The experiment consisted of performing surgery on 8-week-old mice to implant an enterojejujnal catheter to deliver drugs locally to the intestinal mucosa. After a 1-week recovery period, mice were treated with a single i.p. injection of DBZ or vehicle control. Administration of Foxo1 inhibitor compound 9 (Langlet et al. 2017 Cell, see below)
(§1) was initiated either on the same day or on the following day, t.i.d. by injection via enterojejunal catheter for 3 days. At the end of the experiment, mice were sacrificed and the intestine analyzed for enteroendocrine cell content using immunohistochemistry. […] The treatment regime of FIG. 10 involved administering the first dose of FBT9 with DBZ followed by subsequent doses of FBT9.

[2] = system: intestine enteroendocrine cells of Foxo1 heterozygous knockouts; test: Co-treatment: DBZ with first dose of FBT9, then FBT9 3 days TID; intestine immunohistochemistry; assay type: in vivo, mouse; conditions: DBZ alone or FBT9 x3 days TID alone (FIG. 9)
Experimental: FIG. 8 provides graphs showing the effect of co-treatment of FBT9 and DBZ (DBZ administered in conjunction with first dose of FBT9 followed by sequential administration of FBT9 3 days TID) on body weight and plasma glucose in Foxo1 heterozygous knockouts.
The experiment consisted of performing surgery on 8-week-old mice to implant an enterojejujnal catheter to deliver drugs locally to the intestinal mucosa. After a 1-week recovery period, mice were treated with a single i.p. injection of DBZ or vehicle control.
as §1

Gut Ins+ cells = test: Insulin secretion by Gut Ins+ cells, block by diazoxide
[3] = system: gut cells of Foxo1 knockout mice; test: Oral gavage of ROCK inhibitor Y-27632 in Foxo1 knockout mice; intestine immunohistochemistry; assay type: in vivo, mouse; conditions: for number of insulin-positive cells in Foxo1 knockout mice not treated with ROCKi relative to those treated: Y-27632 oral gavage q.d. 2 days, FIG. 17, dihydrochloride
Description: The experiment consisted of treating 8-week-old mice (Foxo1 knockout mice) by oral gavage dosing of Y-27632, q.d., for 2 days. On day 3, mice were sacrificed and the intestine analyzed for enteroendocrine cell content using immunohistochemistry. The arrows in FIGS. 15 and 16 represent c-peptide and insulin-positive cells, which resemble true beta-like cells.

[4] = system: Mouse gut organoid from a wild type mouse; test: FBT10 treatment of mouse gut organoid, immunohistochemistry; assay type: cell-based; conditions: after 72 hrs of treatment; FIG. 18
Experimental: Mouse gut organoid from a wild type mouse was treated with FBT10 (Compound 10, Langlet et al. 2017 Cell, see below).

[5] = system: intestine enteroendocrine cells; test: Co-administration of FBT10 (enterojejunal catheter) and DBZ (i.p.) in mice; intestine immunohistochemistry; assay type: in vivo, mouse; conditions: FBT10 t.i.d. 3 days with single i.p. DBZ; FIG. 19
Experimental: The protocol used above in Example 1 was followed for testing a combination of FBT10 and DBZ. The experiment consisted of performing surgery on 8-week-old mice to implant an enterojejujnal catheter to deliver drugs locally to the intestinal mucosa. After a 1-week recovery period, mice were treated with a single i.p. injection of DBZ or vehicle control. Administration of Foxo1 inhibitor compound 10 (FBT10) was initiated either on the same day or on the following day, t.i.d. by injection via enterojejunal catheter for 3 days. At the end of the experiment, mice were sacrificed and the intestine analyzed for enteroendocrine cell content using immunohistochemistry. Regarding the graphs indicating effects on Body weight and blood glucose, each line represents an individual animal. […] No insulin-positive cells were found in vehicle treated duodenum or colon.

gut cells of NOD mice = test: FBT10 in NOD mice over 96 hr; gut micrographs; assay type: in vivo, mouse; conditions: 96 hr period, FIG. 20
Experimental: NOD mice (mouse model whose pancreatic beta cells are destroyed by immunological response) were treated with FBT10 or vehicle over a 96 hr period. […] Insulin-positive cells were not detected in the colon. FIG. 20 also provides graphs showing effects on body weight and blood glucose (each graph line represents an individual animal)

SMILES: C[C@H](NC(=O)Cc1cc(F)cc(F)c1)C(=O)N[C@@H]1C(=O)N(C)c2ccccc2-c2ccccc21 [DBZ]
- number of Serotonin (5HT)-positive cells [1]: increased
- number of Somatostatin-positive cells [1]: increased
- number of Glp1-positive cells ([1]; duodenum and jejunum): increased
- ins+ cells after individual treatment [2]: neither which produced ins+ cells

SMILES: COc1ccc(C(=O)Nc2cc(-c3nc4ccccc4[nH]3)n[nH]2)cc1Cl [FBT9, N-(3-(1H-benzo[d]imidazole-2-yl)-1H-pyrazol-5-yl)-3-chloro-4-methoxybenzamide]
- ins+ cells after individual treatment [2]: neither which produced ins+ cells

SMILES: CC1=NS(=O)(=O)c2cc(Cl)ccc2N1 [diazoxide]
- insulin secretion / release by Gut Ins+ cells (Gut Ins+ cells): can be blocked; also recorded: can be shut off

SMILES: C[C@@H](N)[C@H]1CC[C@H](C(=O)Nc2ccncc2)CC1.Cl.Cl [Y27632, (+)-(R)-trans-4-(1-aminoethyl)-N-(4-pyridyl)cyclohexanecarboxamide dihydrochloride]
- Epcam counterstain of insulin-positive cells ([3]; Foxo1 knockout mice treated with ROCKi, FIG. 16): insulin-positive cells are epithelial
- number of insulin-positive cells in Foxo1 knockout mice not treated with ROCKi relative to those treated ([3]; listed as ROCK inhibitor): decreases dramatically
- number of insulin-positive cells in Foxo1 knockout mice not treated with ROCKi relative to those treated ([3]; listed as ROCKi): significantly lower
- C-peptide staining of Ins+ cells in the gut ([3]; homozygous Foxo1 knockout mice, FIG. 15): positive for C-peptide

SMILES: CN1CCN(c2ccc(C(=O)Nc3cc(-c4nc5ccccc5[nH]4)n[nH]3)cc2)CC1 [FBT10, N-(3-(1H-benzo[d]imidazol-2-yl)-1H-pyrazol-5-yl)-4-(4-methylpiperazin-1-yl)benzamide]
- insulin and serotonin (5HT) positive cells [4]: some of the cells turned into insulin and serotonin (5HT) positive cells
- insulin-positive cells in duodenum and colon [5]: present in the duodenum and colon
- insulin-positive cells in the colon (gut cells of NOD mice): not detected
- insulin-positive cells in the jejunum (gut cells of NOD mice): generated insulin-positive cells
